Experiments:
[1] = tested on: MDA-MB-231 tumor cells; test: Cell Titer Glo viability, Mab A + SMAC mimetic (Example 7); settings: MDA-MB-231 cells; 72 hours
[2] = tested on: HCT 116; test: Cell Titer Glo viability, Mab A + SMAC mimetics (Example 13); type: cell-based; settings: SMAC mimetic in combination with Mab A
Description: (§1) Synergy was determined as described in earlier examples. The average Bliss synergy scores for combinations of Mab A and SMAC mimetic on the various tumor cell lines are shown in Table 15.

[3] = tested on: SK-MEL-5; test: as above; type: cell-based; settings: SMAC mimetic in combination with Mab A
Description: as §1

[4] = tested on: EBC-1; test: as above; type: cell-based; settings: SMAC mimetic in combination with Mab A
Description: as §1

[5] = tested on: OVCAR-4; test: as above; type: cell-based; settings: SMAC mimetic in combination with Mab A
Description: as §1

[6] = tested on: SW1353; test: as above; type: cell-based; settings: SMAC mimetic in combination with Mab A
Description: as §1

[7] = tested on: HT 1080; test: as above; type: cell-based; settings: SMAC mimetic in combination with Mab A
Description: as §1

[8] = tested on: SA3840 tumor fragments; test: SA3840 osteosarcoma PDX model (Example 11); type: in vivo, mice; settings: birinapant 30 mg/kg i.p., alone or with Mab A 5 mg/kg i.v.; n=5 animals/group
[9] = tested on: A2058; test: Cell Titer Glo viability, Mab A + birinapant (Example 10); type: cell-based; settings: A2058 (Melanoma)
Description: (§2) Cell viability curves for combinations of anti-DR5 IgM Mab A with birinapant on A2058, BT-20, DV-90, ES-2, HCC15, HCT 116, HT 1080, KYSE 410, MEWO, OVCAR-5, SK-LU-1, SK-MEL-5, SNU-1, SW780, SW1353, and T24 are shown in FIGS. 19A, 19C, 19E, 19G, 19I, 19K, 19M, 19O, 19Q, 19S, 19U, 19W, 19Y, 19AA, 19AC, and 19AE, respectively. Synergy was determined as described in earlier examples.

[10] = tested on: ES-2; test: as above; type: cell-based; settings: ES-2 (Ovarian)
Description: as §2

[11] = tested on: OVCAR-5; test: as above; type: cell-based; settings: OVCAR-5 (Ovarian)
Description: as §2

[12] = tested on: SW780; test: as above; type: cell-based; settings: SW780 (Bladder)
Description: as §2

[13] = tested on: HCT 116; test: as above; type: cell-based; settings: HCT 116 (Colorectal)
Description: as §2

[14] = tested on: SNU-1; test: as above; type: cell-based; settings: SNU-1 (Gastric)
Description: as §2

[15] = tested on: MEWO; test: as above; type: cell-based; settings: MEWO (Melanoma)
Description: as §2

[16] = tested on: SW1353; test: as above; type: cell-based; settings: SW1353 (Chondrosarcoma)
Description: as §2

[17] = tested on: HCC15; test: as above; type: cell-based; settings: HCC15 (Lung)
Description: as §2

[18] = tested on: KYSE 410; test: as above; type: cell-based; settings: KYSE 410 (Esophageal)
Description: as §2

[19] = tested on: BT-20; test: as above; type: cell-based; settings: BT-20 (TNBC)
Description: as §2

[20] = tested on: HT 1080; test: as above; type: cell-based; settings: HT 1080 (Fibrosarcoma)
Description: as §2

[21] = tested on: T24; test: as above; type: cell-based; settings: T24 (Bladder)
Description: as §2

[22] = tested on: EBC-1 tumor cells; test: EBC-1 non-small cell lung cancer (NSCLC) model (Example 11); type: in vivo, mice; settings: birinapant 30 mg/kg i.p. every 3 days, alone or with Mab A 5 mg/kg i.v.; n=10 animals/group
Description: 3×10^6 EBC-1 tumor cells were implanted subcutaneously in the flanks of female BALB/c nude mice.

[23] = tested on: 8505C; test: Cell Titer Glo viability, Mab A + birinapant, head and neck tumor cell lines (Example 12); type: cell-based; settings: 8505C head and neck cancer cell line
Description: (§3) Exemplary cell viability curves for combinations of anti-DR5 IgM Mab A with birinapant on Detroit 562 and KYSE270 are shown in FIGS. 22A and 22C, respectively. Synergy was determined as described in earlier examples. […] The Average Bliss synergy scores for combinations of Mab A and birinapant on the various head and neck tumor cell lines are shown in Table 14.

[24] = tested on: 8305C; test: as above; type: cell-based; settings: 8305C head and neck cancer cell line
Description: as §3

[25] = tested on: A253; test: as above; type: cell-based; settings: A253 head and neck cancer cell line
Description: as §3

[26] = tested on: TE-1; test: as above; type: cell-based; settings: TE-1 head and neck cancer cell line
Description: as §3

[27] = tested on: KYSE-70; test: as above; type: cell-based; settings: KYSE-70 head and neck cancer cell line
Description: as §3

[28] = tested on: KYSE410; test: as above; type: cell-based; settings: KYSE410 head and neck cancer cell line
Description: as §3

[29] = tested on: OE19; test: as above; type: cell-based; settings: OE19 head and neck cancer cell line
Description: as §3

[30] = tested on: KYSE270; test: as above; type: cell-based; settings: KYSE270 head and neck cancer cell line
Description: as §3

[31] = tested on: Detroit 562; test: as above; type: cell-based; settings: Detroit 562 head and neck cancer cell line
Description: as §3

[32] = tested on: FaDu; test: as above; type: cell-based; settings: FaDu head and neck cancer cell line
Description: as §3

[33] = tested on: KYSE150; test: as above; type: cell-based; settings: KYSE150 head and neck cancer cell line
Description: as §3

[34] = tested on: DR5 agonist-resistant MDA-MB-231 cells; test: Cell Titer Glo viability, Mab A + SMAC mimetic on DR5 agonist-resistant tumor cells (Example 8); type: cell-based

With CC[C@H](NC(=O)[C@H](C)NC)C(=O)N1C[C@@H](O)C[C@H]1Cc1c(-c2[nH]c3cc(F)ccc3c2C[C@@H]2C[C@H](O)CN2C(=O)[C@H](CC)NC(=O)[C@H](C)NC)[nH]c2cc(F)ccc12 [birinapant, Birinapant] the “single agent cytotoxicity (cell viability curves)” value [1] was “little to no cytotoxicity”, the “Average Bliss score” value [2] was 31 and the “Average Bliss score” value [3] was 14. The “Average Bliss score” value [4] was 39, the “Average Bliss score” value [5] was 14 and the “Average Bliss score” value [6] was −0.6. The “Average Bliss score” value [7] was 30, the “animals that missed doses due to body weight loss” value [8] was 1 animal and the “Avg Bliss score” value [9] was 49. The “Avg Bliss score” value [10] was 19, the “Avg Bliss score” value [11] was 17 and the “Avg Bliss score” value [12] was 35. For the same compound, the “Avg Bliss score” value [13] was 36, the “Avg Bliss score” value [14] was 39 and the “Avg Bliss score” value [15] was 26. For the same compound, the “Avg Bliss score” value [16] was 18, the “Avg Bliss score” value [17] was 41 and the “Avg Bliss score” value [18] was 42. For the same compound, the “Avg Bliss score” value [19] was 4, the “Avg Bliss score” value [20] was 45 and the “Avg Bliss score” value [21] was 38. For the same compound, the “mice that missed doses due to body weight loss” value [22] was 3 mice, the “Average Bliss score” value [23] was 10 and the “Average Bliss score” value [24] was 27. The “Average Bliss score” value [25] was 26, the “Average Bliss score” value [26] was 29 and the “Average Bliss score” value [27] was 25. For the same compound, the “Average Bliss score” value [28] was 35, the “Average Bliss score” value [29] was 17 and the “Average Bliss score” value [30] was 15. For the same compound, the “Average Bliss score” value [31] was 36, the “Average Bliss score” value [32] was 16 and the “Average Bliss score” value [33] was 0.2. For the same compound, the “single agent cytotoxicity (cell viability curves)” value [34] was “little to no cytotoxicity”.

Reference: patent US20230174660A1, “USE OF A MULTIMERIC ANTI-DR5 BINDING MOLECULE IN COMBINATION WITH A CANCER THERAPY FOR TREATING CANCER” (IGM Biosciences, Inc., priority 2020, published 2023)
